In PubChem BioAssay AID256 (DTP/NCI, 2004):
Toxic doses and inconclusive results are not listed. How the source made its calls: active means survival T/C of 150% or more; inactive means T/C below 125% in these data.

Test system: CD2F1 mice, L1210 leukemia ip, survival T/C
Test: NCI In Vivo Anticancer Drug Screen. Data for tumor model L1210 Leukemia (intraperitoneal) in CD2F1 (CDF1) mice
Details: higher = longer survival
Procedure, shortened: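 Read-out first: treated-group measurement over vehicle-control measurement, expressed as a ratio. Animals bore a transplanted tumor line and were dosed with compound or vehicle.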

[1] = endpoint: mean survival time, dose: 75.0 mg/kg/injection, schedule: Q01DX001 (ip), vehicle: saline
[2] = endpoint: mean survival time, dose: 150.0 mg/kg/injection, schedule: Q01DX001 (ip), vehicle: saline
[3] = endpoint: mean survival time, dose: 300.0 mg/kg/injection, schedule: Q01DX001 (ip), vehicle: saline
[4] = endpoint: mean survival time, dose: 50.0 mg/kg/injection, schedule: Q01DX009 (ip), vehicle: saline with Tween-80
[5] = endpoint: mean survival time, dose: 100.0 mg/kg/injection, schedule: Q01DX009 (ip), vehicle: saline with Tween-80
[6] = endpoint: mean survival time, dose: 100.0 mg/kg/injection, schedule: Q01DX009 (ip), vehicle: other
[7] = endpoint: mean survival time, dose: 100.0 mg/kg/injection, schedule: Q04DX002 (ip), vehicle: saline with Tween-80
[8] = endpoint: mean survival time, dose: 200.0 mg/kg/injection, schedule: Q04DX002 (ip), vehicle: saline with Tween-80
[9] = endpoint: mean survival time, dose: 100.0 mg/kg/injection, schedule: Q04DX003 (ip), vehicle: saline with Tween-80
[10] = endpoint: mean survival time, dose: 200.0 mg/kg/injection, schedule: Q04DX003 (ip), vehicle: saline with Tween-80
[11] = endpoint: mean survival time, dose: 100.0 mg/kg/injection, schedule: Q01DX009 (ip), vehicle: saline
[12] = endpoint: mean survival time, dose: 200.0 mg/kg/injection, schedule: Q01DX009 (ip), vehicle: saline
[13] = endpoint: mean survival time, dose: 400.0 mg/kg/injection, schedule: Q04DX003 (ip), vehicle: saline with Tween-80
[14] = endpoint: mean survival time, dose: 200.0 mg/kg/injection, schedule: Q01DX009 (ip), vehicle: saline with Tween-80
[15] = endpoint: mean survival time, dose: 400.0 mg/kg/injection, schedule: Q04DX002 (ip), vehicle: saline with Tween-80

Measured: T/C

CCSc1n[nH]c(=O)nc1SC
inactive: [1] 98 % of control | [2] 96 % of control | [3] 97 % of control

O=C1c2ccccc2-c2cc([N+](=O)[O-])c(Cl)cc21
inactive: endpoint: mean survival time, dose: 50.0 mg/kg/injection, schedule: Q04DX003 (ip), vehicle: Klucel (hydroxypropylcellulose) (HPC) 91 % of control | endpoint: mean survival time, dose: 100.0 mg/kg/injection, schedule: Q04DX003 (ip), vehicle: Klucel (hydroxypropylcellulose) (HPC) 96 % of control | endpoint: mean survival time, dose: 200.0 mg/kg/injection, schedule: Q04DX003 (ip), vehicle: Klucel (hydroxypropylcellulose) (HPC) 94 % of control

CN(C)CCC(=O)c1cccc2ccccc12
inactive: endpoint: mean survival time, dose: 25.0 mg/kg/injection, schedule: Q01DX009 (ip), vehicle: saline with Tween-80 98 % of control | [4] 96 % of control | endpoint: mean survival time, dose: 100.0 mg/kg/injection, schedule: Q01DX001 (ip), vehicle: saline with Tween-80 92 % of control | [5] 96 % of control

Cc1ccc(N2CCOC2=O)cc1N1CCOC1=O
inactive: endpoint: mean survival time, dose: 25.0 mg/kg/injection, schedule: Q01DX009 (ip), vehicle: other 100 % of control | endpoint: mean survival time, dose: 50.0 mg/kg/injection, schedule: Q01DX009 (ip), vehicle: other 105 % of control | [6] 102 % of control

CC(=O)C(C#N)c1c(C)cc(C)cc1C (stereo not drawn)
inactive: endpoint: mean survival time, dose: 37.5 mg/kg/injection, schedule: Q01DX009 (ip), vehicle: saline 96 % of control | endpoint: mean survival time, dose: 75.0 mg/kg/injection, schedule: Q01DX009 (ip), vehicle: saline 98 % of control | endpoint: mean survival time, dose: 150.0 mg/kg/injection, schedule: Q01DX009 (ip), vehicle: saline 96 % of control

CCOC(=O)C(=O)C1CCc2c(ccc3ccccc23)C1=O (stereo not drawn)
inactive: endpoint: mean survival time, dose: 50.0 mg/kg/injection, schedule: Q04DX002 (ip), vehicle: saline with Tween-80 93 % of control | endpoint: mean survival time, dose: 100.0 mg/kg/injection, schedule: Q01DX001 (ip), vehicle: Klucel (hydroxypropylcellulose) (HPC) 91 % of control | [7] 96 % of control | endpoint: mean survival time, dose: 200.0 mg/kg/injection, schedule: Q01DX001 (ip), vehicle: Klucel (hydroxypropylcellulose) (HPC) 93 % of control | [8] 96 % of control

C=CCNc1ccc(OC)cc1
inactive: [9] 101 % of control | [10] 95 % of control

NC(N)=N/N=C\c1ccc(/C=N/N=C(N)N)cc1
inactive: endpoint: mean survival time, dose: 3.0 mg/kg/injection, schedule: Q01DX010 (ip), vehicle: saline 102 % of control | endpoint: mean survival time, dose: 5.0 mg/kg/injection, schedule: Q01DX010 (ip), vehicle: saline 106 % of control | endpoint: mean survival time, dose: 8.0 mg/kg/injection, schedule: Q01DX010 (ip), vehicle: saline 110 % of control | endpoint: mean survival time, dose: 12.0 mg/kg/injection, schedule: Q01DX010 (ip), vehicle: saline 112 % of control

OC1CC2C=CC1CC2 (stereo not drawn)
inactive: [11] 97 % of control | [12] 94 % of control | endpoint: mean survival time, dose: 400.0 mg/kg/injection, schedule: Q01DX009 (ip), vehicle: saline 100 % of control

COP(=O)(OC)C(=O)c1cccc2ccccc12
inactive: [9] 95 % of control | [10] 93 % of control | [13] 96 % of control

CCCC(=O)N(CC)CC
inactive: endpoint: mean survival time, dose: 50.0 mg/kg/injection, schedule: Q01DX009 (ip), vehicle: saline 94 % of control | [11] 98 % of control | [12] 98 % of control

COc1cc(OC)c(NC(=O)Nc2ccc(Nc3ccccc3)cc2)cc1Cl
inactive: [4] 90 % of control | [5] 94 % of control | [14] 90 % of control

CC(=O)OCCC/C(=C\c1ccc(Cl)c(Cl)c1)[N+](=O)[O-]
inactive: endpoint: mean survival time, dose: 100.0 mg/kg/injection, schedule: Q01DX001 (ip), vehicle: saline 100 % of control

O=C(O)C1C2C=CC3(CN(CCc4ccccc4)C(=O)C13)O2 (stereo not drawn)
inactive: [7] 95 % of control | [8] 95 % of control | [15] 103 % of control

O=P(OCc1ccccc1)(N(CCCl)CCCl)N1CCOCC1 (stereo not drawn)
inactive: endpoint: mean survival time, dose: 62.5 mg/kg/injection, schedule: Q01DX010 (ip), vehicle: saline 103 % of control | endpoint: mean survival time, dose: 125.0 mg/kg/injection, schedule: Q01DX010 (ip), vehicle: saline 101 % of control | endpoint: mean survival time, dose: 250.0 mg/kg/injection, schedule: Q01DX010 (ip), vehicle: saline 104 % of control

[C-]#[O+].[Cl][Sn]([Cl])[Cl].[Cl][Sn]([Cl])[Cl].[Pt].c1ccncc1
inactive: endpoint: median survival time, dose: 3.12 mg/kg/injection, schedule: Q04DX003 (ip), vehicle: saline with Tween-80 113 % of control | endpoint: median survival time, dose: 6.25 mg/kg/injection, schedule: Q04DX003 (ip), vehicle: saline with Tween-80 110 % of control | endpoint: median survival time, dose: 12.5 mg/kg/injection, schedule: Q04DX003 (ip), vehicle: saline with Tween-80 110 % of control | endpoint: median survival time, dose: 25.0 mg/kg/injection, schedule: Q04DX003 (ip), vehicle: saline with Tween-80 102 % of control | endpoint: median survival time, dose: 50.0 mg/kg/injection, schedule: Q04DX003 (ip), vehicle: saline with Tween-80 108 % of control | endpoint: median survival time, dose: 100.0 mg/kg/injection, schedule: Q04DX003 (ip), vehicle: saline with Tween-80 108 % of control | endpoint: median survival time, dose: 200.0 mg/kg/injection, schedule: Q04DX003 (ip), vehicle: saline with Tween-80 120 % of control

CCOC(=N)CCCl
inactive: [9] 106 % of control | [10] 101 % of control | [13] 97 % of control

CC(=O)C[n+]1ccccc1Sc1ccc(Cl)cc1
inactive: endpoint: median survival time, dose: 12.5 mg/kg/injection, schedule: Q01DX005 (ip), vehicle: saline with Tween-80 100 % of control | endpoint: median survival time, dose: 25.0 mg/kg/injection, schedule: Q01DX005 (ip), vehicle: saline with Tween-80 101 % of control | endpoint: median survival time, dose: 50.0 mg/kg/injection, schedule: Q01DX005 (ip), vehicle: saline with Tween-80 97 % of control | endpoint: median survival time, dose: 100.0 mg/kg/injection, schedule: Q01DX005 (ip), vehicle: saline with Tween-80 107 % of control

CCc1ccccc1NC(=O)/C=C/c1ccccc1
inactive: [7] 86 % of control | [8] 96 % of control | [15] 93 % of control

CCCCCCCCCCOc1ccc(Cl)cc1Cl
inactive: [7] 101 % of control | [8] 101 % of control | [15] 90 % of control

O=C(CC(O)(C(F)(F)F)C(F)(F)F)c1ccc(Br)cc1
inactive: [6] 106 % of control | endpoint: mean survival time, dose: 200.0 mg/kg/injection, schedule: Q01DX009 (ip), vehicle: other 100 % of control | endpoint: mean survival time, dose: 400.0 mg/kg/injection, schedule: Q01DX009 (ip), vehicle: other 95 % of control

CCCCN1CCNCC1
inactive: endpoint: mean survival time, dose: 100.0 mg/kg/injection, schedule: Q04DX003 (ip), vehicle: saline 93 % of control | endpoint: mean survival time, dose: 200.0 mg/kg/injection, schedule: Q04DX003 (ip), vehicle: saline 94 % of control

O=CNC(CSSCC(NC=O)C(=O)O)C(=O)O (stereo not drawn)
inactive: [5] 100 % of control | [14] 97 % of control | endpoint: mean survival time, dose: 400.0 mg/kg/injection, schedule: Q01DX009 (ip), vehicle: saline with Tween-80 94 % of control

Oc1c(C(c2ccccc2)N2CCOCC2)ccc2ccccc12 (stereo not drawn)
inactive: [4] 94 % of control | [5] 102 % of control | [9] 95 % of control | [14] 98 % of control | [10] 103 % of control

CC1c2ccccc2CC2(C)CN12 (stereo not drawn)
inactive: [1] 103 % of control | [2] 101 % of control | [3] 97 % of control

CN=C1CCCCN1
inactive: endpoint: mean survival time, dose: 100.0 mg/kg/injection, schedule: Q04DX003 (ip), vehicle: saline sonified 103 % of control | endpoint: mean survival time, dose: 200.0 mg/kg/injection, schedule: Q04DX003 (ip), vehicle: saline sonified 104 % of control | endpoint: mean survival time, dose: 400.0 mg/kg/injection, schedule: Q04DX003 (ip), vehicle: saline sonified 103 % of control

O=C(O)c1ccc([N+](=O)[O-])cc1Br
inactive: [7] 96 % of control | [8] 107 % of control | [15] 100 % of control
